# Laboratory results published in patent US20220226473A1, “Nucleic acid nanocarrier drug and preparation method thereof, pharmaceutical composition and application thereof” (BAI YAO ZHI DA (BEIJING) NANOBIO TECHNOLOGY CO., LTD., priority 2018, published 2022).
# {Biotin} = biotin of the strand; {Cy5} = Cy5 fluorescent label
# B1: DNAh-Bio-EGFRapt-Cy5: targeted fluorescent carrier: DNA nanoparticle, strands SEQ ID NO: 172-174, 5′ biotin, EGFRapt, 3′ Cy5, thio-modified ends (nucleic acid)
# chain 1: CGCGCGCCCACGAGCGTTCCGGGCGCGCCTTAGTAACGTGCTTTGATGTCGATTCGACAGGAGGC
# chain 2: GCGCCCGGTTCGCCGCCAGCCGCCGC
# chain 3: GCGGCGGCAGGCGGCCATAGCCGTGGGCGCGCG
# modifications: chain 1: DNA, 5' {Biotin}, backbone not given here; chain 2: DNA, backbone not given here; chain 3: DNA, 3' {Cy5}, backbone not given here; first and last three bases thio-modified, DNA nanoparticle with EGFR aptamer, further chemistry not fully specified
# Key:
# SGC7901 cells = assay: Cytotoxicity of RNAh-Biotin-quasar670-hdcp nanoparticles; type: cell-based
# SH-SY5Y cells [1] = assay: Cytotoxicity in SH-SY5Y cells, CellTiter-Glo (Embodiment 8); type: cell-based
# Experimental: (1) Using the RPMI1640+10% FBS+1% PS medium to culture the SH-SY5Y cells at 37 DEG C and 5% CO2.
# (2) Collecting the cells, centrifuging at 800 rpm for 5 minutes, resuspending the medium, adjusting the cell concentration, and adding to the 96-well plate in a volume of 5000 cells per 90 μL.
# (3) Diluting a sample to be tested with the culture medium on the next day, respectively adding 200 nM to each sample, herein each sample has 4 replicate wells for replication.
# (4) After being cultured for 72 hours, adding 100 μL of the CTG reagent to each well, shaking for 2 minutes, and standing at the room temperature for 10 minutes, herein a whole process is protected from light.
# (5) Finally using Soft Max Pro5 software to read.
# HL60 cells = assay: Cytotoxicity of RNAh-Bio-670-EPB nanoparticles, CellTiter-Glo; type: cell-based
# Experimental: Preparing a freshly prepared reagent into a corresponding volume container, and adding PBS to be quantified to 10 μM.
# Cells are cultured at 37 DEG C. and 5% CO2 in a corresponding basal medium in which 10% FBS and 1% PS are respectively added. The cell density used in the experiment is above 80%. The cells are collected, and centrifuged at 1000 rpm for 4 minutes, the medium is resuspended, the cell concentration is adjusted, and it is added to the 96-well plate in a volume of 3000 cells per 50 μL, and each group has 3 replicate wells.
# After 24 hours, the compound solution is transferred to each well by 50 μL/well.
# The above cells after administration are cultured for 72 hours under a condition of 37 DEG C and 5% CO2.
# The well plate is brought to a room temperature in advance and stands for 30 minutes, 100 μL of a CellTiter-Glo® reagent is added to each well of the well plate and mixed for 2 minutes on a shaker to promote cell lysis. The Perkin Elmer Envision 2104 Multilabel Reader is used to read values and the values are recorded.
# The acquired experiment data is analyzed and processed by using excel software, and GraphPad Prism 5 software is used for curve fitting analysis.
# MOLT4 cells = assay: Cytotoxicity of RNAh-Bio-670-MTX nanoparticles, CTG; type: cell-based, human; details: maximum administration concentration 5 μm
# Experimental: 1) Using the RPMI1640+10% FBS+1% PS medium to culture the MOLT4 cells at 37 DEG C. and 5% CO2.
# 2) Collecting the cells, centrifuging at 800 rpm for 5 minutes, resuspending the medium, adjusting the cell concentration, and adding to the 96-we plate in a volume of 5000 cells per 90 μL. […]
# 4) After being cultured for 72 hours, adding 100 μL of the CTG reagent to each well, shaking for 2 minutes, and standing at the room temperature for 10 minutes, herein a whole process is protected from light.
# 5) Finally using Soft Max Pro5 software to read.
# SH-SY5Y cells [2] = assay: Cytotoxicity of RNAh-Biotin-quasar670-aspirin nanoparticles, CTG kit; type: cell-based; details: highest administration concentration 10 μM
# Experimental: Experiment purpose: an effect of a compound on proliferation of a target tumor cell line is researched.
# Experiment design: the compound is diluted in 8 concentration gradients and sequentially added to the target tumor cell line and incubated for 72 hours, the CTG kit is used to detect the effect of the compound on the cell proliferation.
# MCF-7 cells [3] = assay: Cytotoxicity of RNAh-Bio-670-THP and RNAh-Bio-670-DNR nanoparticles, CTG; type: cell-based, human; details: MCF-7, 72 h, 200 nM
# Experimental: 3) Diluting a sample to be tested with the culture medium on the next day, respectively adding 200 nM to each sample, herein each sample has 4 replicate wells for replication.
# Samples to be tested: small molecular drug THP and RNAh-Bio-670-THP nanoparticles;
# 1) Except that it is the MCF-7 cells, the rest are the same as (III).
# MCF-7 cells [4] = assay: Cytotoxicity of DNAh-Bio-EGFRapt-Cy5-EPB nanoparticles, CellTiter 96 AQueous One Solution; type: cell-based, human
# Excerpt: GraphPad Prism5.0 software is used to process data graphically. […] A calculation formula of the cell survival rate is as follows, the IC50 may be automatically calculated in the GraphPad Prism 5.0. […]
# NCI-H1975 cells [5] = assay: as above; type: cell-based; details: for IC50: NCI-H1975, 96 hours
# Experimental: GraphPad Prism5.0 software is used to process data graphically. In order to calculate the IC50, “W”-shaped non-linear regression analysis is performed on the data to match a suitable dosage-effect curve. A calculation formula of the cell survival rate is as follows, the IC50 may be automatically calculated in the GraphPad Prism 5.0.
# SGC-7901 cells [6] = assay: Cytotoxicity of DNAh-Biotin-EGFRapt-Cy5-THP nanoparticles; type: cell-based, human; details: for IC50: SGC-7901
# Experimental: (§1) 2) adjusting the cell density to 2.22×10^4/mL with a growth medium:
# (§2) 3) planting 90 μL/well of cell suspension into the 96-well plate, herein the number of cells per well in the plate is 2000;
# (§3) 4) placing the planted cell plate in the incubator at 37 DEG C. and incubating overnight;
# (§4) 5) performing 3.16-fold gradient dilution on the compound at 9 concentration points;
# (§5) 6) taking out the cell culture plate, and adding 10 μL/well of 10× concentration drug working solution to the corresponding wells of the cell culture plate, herein three replicate holes are made for each concentration, and the final drug action concentration is shown in the table below.
# (§6) 7) placing the cell culture plate in the incubator and continuously incubating for 96 hours;
# (§7) 8) placing the CellTiter 96@D AQueous One Solution reagent at the room temperature and thawing for 90 minutes or thawing in a water bath at 37 DEG C., and then equilibrating at the room temperature for 30 minutes;
# (§8) 9) adding 20 μL/well of the CellTiter 96® AQueous One Solution reagent to the cell culture plate;
# (§9) 10) placing the cell culture plate in the incubator at 37 DEG C. and continuously incubating for 3 hours;
# (§10) 11) using the microplate reader to read a OD490 value of each well in the cell plate; and
# (§11) 12) data processing and analysis.
# (§12) GraphPad Prism5.0 software is used to process data graphically. In order to calculate the IC50, […] non-linear regression analysis is performed on the data to match a suitable dosage-effect curve. A calculation formula of the cell survival rate is as follows, the IC50 may be automatically calculated in the GraphPad Prism 5.0.
# (§13) Cell survival rate (%)=(ODtest well−ODblank control)/(ODnegative control−ODblank control)×100%.
# (§14) II. Experiment Device and Method Same as (II)
# SKOV3 cells [7] = assay: as above; type: cell-based, human; details: for IC50: SKOV3
# Experimental: as §1, §2, §3, §4, §5, §6, §7, §8, §9, §10, §11, §12, §13, §14
# HepG2 cells = assay: Cytotoxicity of RNAh-Biotin-quasar670-flu nanoparticles; type: cell-based
# Experimental: I. Samples to be tested: small molecular […] chemical drug and RNAh-Biotin-quasar670-flu nanoparticles.
# In order to further determine that the RNA nanoparticles without carrying the […] have no apparent cytotoxicity to the HepG2 cells, the inventor further designs a toxicity experiment of the RNAh-Biotin-FAM (FAM is a fluorescent marker), a targeted fluorescent carrier, to the HepG2 cells (a drug administration gradient in the experiment is as follows: 100 μM, 31.6 μM, 10 μM, 3.16 μM, 1 μM, 316 nM, 100 nM, 31.6 nM, 10 nM, and 0 (10% PBS)), the results thereof are shown in Table 134 and FIG. 95.
# MCF-7 cells [8] = assay: Flow cytometry binding of DNAh-Bio-EGFRapt-Cy5-EPB nanoparticles; type: cell-based, human; details: 2 hours
# Experimental: (§15) MCF-7 (source: ATCC, and article number: HTB-22), NCI-H1975 (source: ATCC, and article number: CRL-5008); a culture medium is MEM+10% FBS, and culture conditions are 37 DEG C., 5% CO2, and saturated humidity.
# (§16) 1. Adjusting a cell state to a logarithmic growth phase, changing the medium to a medium without biotin and folic acid, and incubating overnight in the incubator at 37 DEG C;
# (§17) 2. dissolving the substances to be tested and preparing the to-be-tested substance stock solution;
# (§18) 3. digesting and collecting the single-cell suspension and counting, adjusting the cell density to 2×10^5/mL, planting 1 mL/well into the 24-well plate;
# (§19) 4. respectively adding the substances to be tested to the corresponding cell wells, herein the final concentration is 2 μM, shaking and mixing uniformly;
# (§20) 5. placing the cell plate in the incubator at 37 DEG C. and incubating for 2 hours;
# (§21) 6. after the incubation, pancreatin-digesting and collecting the cell suspension;
# (§22) 7. centrifugally collecting a cell precipitation, and washing twice with the PBS;
# (§23) 8. finally, resuspending the cell precipitation with 300 μL of the PBS, and performing a flow cytometric on-machine detection;
# (§24) 9. fluorescence carrier or epirubicin detection channels: excitation light wavelength: 488 nm, and emission light channel: 560 nm; and […]
# NCI-H1975 cells [9] = assay: as above; type: cell-based; details: 2 hours
# Experimental: as §15, §16, §17, §18, §19, §20, §21, §22, §23, §24
# SGC-7901 cells [10] = assay: Flow cytometer binding of pirarubicin-loaded DNA nanoparticles; type: cell-based, human; details: SGC-7901, 2 μM, 2 hours
# Experimental: (§25) 1). Adjusting a cell state to a logarithmic growth phase, changing the medium to a medium without biotin and folic acid, and incubating overnight in the incubator at 37 DEG C;
# (§26) 2). dissolving the substances to be tested and preparing the to-be-tested substance stock solution;
# (§27) 3). digesting and collecting the single-cell suspension and counting, adjusting the cell density to 2×10^5/mL, planting 1 mL/well into the 24-well plate;
# (§28) 4). respectively adding the substances to be tested to the corresponding cell wells, herein the final concentration is 2 μM, shaking and mixing uniformly;
# (§29) 5). placing the cell plate in the Incubator at 37 DEG C. and Incubating for 2 hours;
# (§30) 6). after the incubation, pancreatin-digesting and collecting the cell suspension;
# (§31) 7). centrifugally collecting a cell precipitation, and washing twice with the PBS;
# (§32) 8). finally, resuspending the cell precipitation with 300 μL of the PBS, and performing a flow cytometric on-machine detection; herein detection channels of fluorescence carrier or pirarubicin targeted drug: excitation light wavelength: 488 nm, and emission light channel: 560 nm; and […]
# SKOV3 cells [11] = assay: as above; type: cell-based, human; details: SKOV3, 2 μM, 2 hours
# Experimental: as §25, §26, §27, §28, §29, §30, §31, §32
# [12] = administration concentration 5 μM
molecule,measurement,setting,value
CC[C@@]1(O)C(=O)OCc2c1cc1n(c2=O)Cc2cc3cc(O)ccc3nc2-1 [10-hydroxycamptothecin],Cell inhibition rate (%) when administration concentration is 5 μM,"SGC7901 cells; SGC7901, 72 h, 5 μM",75.43%
same,"cell inhibition rate (%), SGC7901 cells",SGC7901 cells; [12],75.43%
N.N.[Cl][Pt][Cl] [Cisplatin],IC50,SH-SY5Y cells [1]; highest administration concentration 5 μM,510 nM
same,inhibition rate to the HL60 cells,HL60 cells; highest administration concentration 10 μM,99.96%
same,inhibition rate to the MOLT4 cell proliferation,MOLT4 cells,99.94%
same,inhibition rate to the SH-SY5Y cells,SH-SY5Y cells [2],99.81%
COc1cccc2c1C(=O)c1c(O)c3c(c(O)c1C2=O)C[C@@](O)(C(C)=O)C[C@@H]3O[C@H]1C[C@H](N)[C@H](O)[C@H](C)O1 [Daunorubicin (DNR)],cell survival rate (%),MCF-7 cells [3],17.33%
"COc1cccc2c1C(=O)c1c(O)c3c(c(O)c1C2=O)C[C@@](O)(C(=O)CO)C[C@@H]3O[C@H]1C[C@H](N)[C@@H](O)[C@H](C)O1 [EPB, epirubicin]",IC50,"HL60 cells; Homo sapiens, HL-60, 72 hours, read-out: IC50, HL60 cell proliferation",69.8 nM
same,inhibition at 5 µM,"HL60 cells; Homo sapiens, HL-60, concentration 5 μM, 72 hours, read-out: inhibition rate on HL60 cells",99.2%
same,toxicity to MCF-7 cells,MCF-7 cells [4]; 96 hours,toxic to the MCF-7 cells
same,IC50,"MCF-7 cells [4]; Homo sapiens, MCF7, MCF-7, 96 hours",84.7 nM
same,toxicity to NCI-H1975 cells,NCI-H1975 cells [5]; 96 hours,toxic to the NCI-H1975 cells
same,IC50,NCI-H1975 cells [5]; Homo sapiens,30.6 nM
COc1cccc2c1C(=O)c1c(O)c3c(c(O)c1C2=O)C[C@@](O)(C(=O)CO)C[C@@H]3O[C@H]1C[C@H](N)[C@H](O[C@@H]2CCCCO2)[C@H](C)O1 [Pirarubicin (THP)],cell survival rate (%),MCF-7 cells [3],13.85%
"COc1cccc2c1C(=O)c1c(O)c3c(c(O)c1C2=O)C[C@@](O)(C(=O)CO)C[C@@H]3O[C@H]1C[C@H](N)[C@H](O[C@@H]2CCCCO2)[C@H](C)O1 [THP, pirarubicin]",toxicity to SGC-7901 cells,SGC-7901 cells [6],toxic to the SGC-7901 cells
same,IC50,SGC-7901 cells [6]; Homo sapiens,27.4 nM
same,toxicity to SKOV3 cells,SKOV3 cells [7],toxic to the SKOV3 cells
same,IC50,"SKOV3 cells [7]; Homo sapiens, SK-OV-3",23.7 nM
"Nc1c2c(nc3ccccc13)CCCC2 [Tacrine, tacrine]",cell proliferation rate (%),"SH-SY5Y cells [1]; 200 nM, 72 h",39.75%
O=c1[nH]cc(F)c(=O)[nH]1 [pentafluorouracil],Cell inhibition rate (%) when administration concentration is 5 μM,"HepG2 cells; HepG2, 72 h, 5 μM",39.02%
same,"cell inhibition rate (%), HepG2 cells",HepG2 cells; [12],39.02%
B1,binding rate to MCF-7 cells,MCF-7 cells [8]; 2 μM,100%
same,Binding rate (%),"MCF-7 cells [8]; MCF-7, 2 μM",99.97%
same,binding rate to NCI-H1975 cells,NCI-H1975 cells [9]; 2 μM,100%
same,Binding rate (%),"NCI-H1975 cells [9]; NCI-H1975, 2 μM",100%
same,Binding rate (%),SGC-7901 cells [10],99.99%
same,Binding rate (%),SKOV3 cells [11],100%
same,IC50,NCI-H1975 cells [5],> 316 nM
same,IC50,SGC-7901 cells [6],> 316 nM
same,IC50,SKOV3 cells [7],> 1000 nM
